For test [1], the system named is NCI-H358. The experiment in a line: Antiproliferative activity against human NCI-H358 cells assessed as inhibition of cell proliferation incubated for 7 days by celltiter-glo 3D assay. In kind it is functional, cell-based. Particulars: NCI-H358, 168 h; call rule not given here.
Test [2] has as its target Protein cereblon/Son of sevenless homolog 1 (Homo sapiens, UniProt Q07889+Q96SW2). As to the kind of experiment: PROTAC activity at CRBN/SOS1 in human NCI-H358 cells assessed as induction of SOS1 degradation incubated for 6 hrs by Western blotting analysis. In kind it is cell-based. (In general: Immunoblotting shows a protein as a band on a membrane.)

Protein cereblon/Son of sevenless homolog 1, sequence (Q07889 whole entry): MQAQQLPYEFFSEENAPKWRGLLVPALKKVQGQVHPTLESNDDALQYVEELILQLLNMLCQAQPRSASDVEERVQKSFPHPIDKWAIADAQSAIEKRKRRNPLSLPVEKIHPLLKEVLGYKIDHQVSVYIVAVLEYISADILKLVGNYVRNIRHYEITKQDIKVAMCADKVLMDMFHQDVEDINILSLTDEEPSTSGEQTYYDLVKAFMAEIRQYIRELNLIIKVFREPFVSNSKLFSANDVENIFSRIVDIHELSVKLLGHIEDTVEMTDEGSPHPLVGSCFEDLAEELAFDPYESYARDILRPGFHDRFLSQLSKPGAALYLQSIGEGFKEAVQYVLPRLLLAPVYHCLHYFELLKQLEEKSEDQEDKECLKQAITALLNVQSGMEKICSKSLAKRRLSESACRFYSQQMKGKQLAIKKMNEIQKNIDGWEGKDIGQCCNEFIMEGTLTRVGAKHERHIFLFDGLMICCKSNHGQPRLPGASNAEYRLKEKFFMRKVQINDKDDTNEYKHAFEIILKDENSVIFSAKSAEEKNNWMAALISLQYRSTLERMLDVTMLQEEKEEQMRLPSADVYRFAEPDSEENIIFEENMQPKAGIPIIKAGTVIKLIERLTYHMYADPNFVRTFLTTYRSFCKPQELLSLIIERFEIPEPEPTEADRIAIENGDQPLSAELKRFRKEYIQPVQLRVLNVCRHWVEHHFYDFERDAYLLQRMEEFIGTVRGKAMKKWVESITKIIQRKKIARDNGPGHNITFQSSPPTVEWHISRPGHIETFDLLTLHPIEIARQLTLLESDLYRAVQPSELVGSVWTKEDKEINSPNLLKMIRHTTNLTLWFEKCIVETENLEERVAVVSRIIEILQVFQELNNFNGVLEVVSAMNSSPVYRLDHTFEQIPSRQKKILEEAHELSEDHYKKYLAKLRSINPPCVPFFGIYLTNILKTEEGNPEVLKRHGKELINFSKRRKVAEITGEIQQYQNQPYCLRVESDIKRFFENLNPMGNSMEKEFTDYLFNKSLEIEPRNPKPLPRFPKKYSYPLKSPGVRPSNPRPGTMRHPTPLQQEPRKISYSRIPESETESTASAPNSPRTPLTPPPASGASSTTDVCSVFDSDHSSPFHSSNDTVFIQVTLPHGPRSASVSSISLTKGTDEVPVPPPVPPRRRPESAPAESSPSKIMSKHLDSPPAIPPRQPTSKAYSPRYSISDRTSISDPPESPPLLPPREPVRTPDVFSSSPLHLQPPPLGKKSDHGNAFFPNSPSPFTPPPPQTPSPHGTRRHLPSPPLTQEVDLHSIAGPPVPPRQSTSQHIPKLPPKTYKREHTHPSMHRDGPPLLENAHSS
Protein cereblon/Son of sevenless homolog 1, sequence (Q96SW2 whole entry): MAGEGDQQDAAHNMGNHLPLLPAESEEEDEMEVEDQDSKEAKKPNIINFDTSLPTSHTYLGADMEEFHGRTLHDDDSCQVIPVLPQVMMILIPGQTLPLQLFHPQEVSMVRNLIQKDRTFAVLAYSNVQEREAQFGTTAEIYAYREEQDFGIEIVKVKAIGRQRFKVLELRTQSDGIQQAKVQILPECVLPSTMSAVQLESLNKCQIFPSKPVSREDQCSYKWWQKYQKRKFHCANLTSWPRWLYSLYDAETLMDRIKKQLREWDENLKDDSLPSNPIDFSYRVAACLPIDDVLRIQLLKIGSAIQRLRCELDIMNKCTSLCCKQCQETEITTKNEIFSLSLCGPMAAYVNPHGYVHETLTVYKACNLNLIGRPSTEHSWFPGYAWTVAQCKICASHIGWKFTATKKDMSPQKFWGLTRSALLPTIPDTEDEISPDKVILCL

The IC50 is the concentration that gives 50% inhibition. One may read the DC50 as the midpoint of the concentration-degradation curve. For the molecule `COc1cc2nc(C)nc(N[C@H](C)c3cc(N)cc(C(F)(F)F)c3)c2cc1OCC1(CN(C)C(=O)CCCOC2CCC(Nc3cccc4c3C(=O)N(C3CCC(=O)NC3=O)C4=O)CC2)CC1` (stereo not given in full), in test [1], the IC50 worked out at 15 nM. For the same molecule, the DC50 in test [2] (read-out: DC50) stood at 35 nM. As to `COc1cc2nc(C)nc(N[C@H](C)c3cc(N)cc(C(F)(F)F)c3)c2cc1OCC1(CN(C)C(=O)CCCCCCNc2cccc3c2C(=O)N(C2CCC(=O)N(C)C2=O)C3=O)CC1` (stereo not given in full), in test [1], the IC50 was found to be 1380 nM. Moreover, in test [2], the DC50 entry is “Not Active”. As for `COc1cc2nc(C)nc(N[C@H](C)c3cc(N)cc(C(F)(F)F)c3)c2cc1OCC1(CN(C)C(=O)CCCCCCNc2cccc3c2CN(C2CCC(=O)NC2=O)C3=O)CC1` (stereo not given in full), the IC50 in test [1] was determined as 47 nM. Also, the DC50 in test [2] (read-out: DC50) came to 151 nM. The matching figures for `COc1cc2nc(C)nc(N[C@H](C)c3cc(N)cc(C(F)(F)F)c3)c2cc1OCC1(CN(C)C(=O)C2CCN(CCNc3cccc4c3C(=O)N(C3CCC(=O)NC3=O)C4=O)CC2)CC1` (stereo not given in full): 18 nM and 44 nM. Turning to `O=C(O)CCCCCCNc1cccc2c1C(=O)N(C1CCC(=O)NC1=O)C2=O` (stereo not given), the half-maximal degradation concentration (DC50) result in test [2] is “Not Active”.

As for `COc1cc2nc(C)nc(N[C@H](C)c3cc(N)cc(C(F)(F)F)c3)c2cc1OCC1(CN(C)C(=O)CCCCCCNc2ccc(F)c3c2C(=O)N(C2CCC(=O)NC2=O)C3=O)CC1` (stereo not given in full), in test [1], the IC50 was 23 nM. Besides, the DC50 in test [2] (read-out: DC50) turned out to be 63 nM. As for `COc1cc2nc(C)nc(N[C@H](C)c3cccc(C(F)F)c3F)c2cc1OCC1(CN(C)C(=O)CCCCCCNc2cccc3c2C(=O)N(C2CCC(=O)NC2=O)C3=O)CC1` (stereo not given in full), in test [1], the IC50 is 216 nM. Also, in test [2] (read-out: DC50), the DC50 turned out to be 540 nM.

Regarding `COc1cc2nc(C)nc(N[C@H](C)c3cc(N)cc(C(F)(F)F)c3)c2cc1OCC1(CN(C)C(=O)CN2CCN(C3CN(c4ccc5c(c4)C(=O)N(C4CCC(=O)NC4=O)C5=O)C3)CC2)CC1` (stereo not given in full), the IC50 in test [1] worked out at 1200 nM.

As for `COc1cc2nc(C)nc(N[C@H](C)c3cc(N)cc(C(F)F)c3)c2cc1OCC1(CN(C)C(=O)CCCCCCNc2cccc3c2C(=O)N(C2CCC(=O)NC2=O)C3=O)CC1` (stereo not given in full), the IC50 in test [1] was 16 nM. Besides, in test [2] (read-out: DC50), the DC50 was 45 nM. Regarding `COc1cc2nc(C)nc(N[C@H](C)c3cc(N)cc(C(F)(F)F)c3)c2cc1OCC1(CN(C)C(=O)CCCCCCNc2ccc3c(c2F)C(=O)N(C2CCC(=O)NC2=O)C3=O)CC1` (stereo not given in full), the IC50 in test [1] turned out to be 4180 nM. As to `COc1cc2nc(C)nc(N[C@H](C)c3cc(N)cc(C(F)(F)F)c3)c2cc1OCC1(CN(C)C(=O)C2CCN(C(=O)C3CCN(c4ccc5c(c4)C(=O)N(C4CCC(=O)NC4=O)C5=O)CC3)CC2)CC1` (stereo not given in full), the IC50 in test [1] was 84 nM. As to `COc1cc2nc(C)nc(N[C@H](C)c3cc(N)cc(C(F)(F)F)c3)c2cc1OCC1(CN(C)C(=O)CCCCCCNc2c(F)ccc3c2C(=O)N(C2CCC(=O)NC2=O)C3=O)CC1` (stereo not given in full), in test [1], the IC50 came out at 63 nM.

Turning to `COc1cc2nc(C)nc(N[C@H](C)c3cc(N)cc(C(F)(F)F)c3)c2cc1OCC1(CN(C)C(=O)CCCN(C)C2CCC(Nc3cccc4c3C(=O)N(C3CCC(=O)NC3=O)C4=O)CC2)CC1` (stereo not given in full), the IC50 in test [1] was found to be 814 nM. For `COc1cc2nc(C)nc(N[C@H](C)c3cc(N)cc(C(F)(F)F)c3)c2cc1OCC1(CN(C)C(=O)CCNc2cccc3c2C(=O)N(C2CCC(=O)NC2=O)C3=O)CC1` (stereo not given in full), the IC50 in test [1] was found to be 2890 nM. The same measure, in the same setting: the same measure for `COc1cc2nc(C)nc(N[C@H](C)c3cc(N)cc(C(F)(F)F)c3)c2cc1OCC1(CN(C)C(=O)C2CCC(NC3CCN(c4ccc5c(c4)C(=O)N(C4CCC(=O)NC4=O)C5=O)CC3)CC2)CC1` (stereo not given in full): 513 nM; for `COc1cc2nc(C)nc(N[C@H](C)c3cc(N)cc(C(F)(F)F)c3)c2cc1OCC1(CN(C)C(=O)C2CCC(OC3CCN(c4ccc5c(c4)C(=O)N(C4CCC(=O)NC4=O)C5=O)CC3)CC2)CC1` (stereo not given in full): 733 nM.

`COc1cc2nc(C)nc(N[C@H](C)c3cc(N)cc(C(F)(F)F)c3)c2cc1OCC1(CN(C)C(=O)CCOCCNc2cccc3c2C(=O)N(C2CCC(=O)NC2=O)C3=O)CC1` (stereo not given in full): in test [1], the IC50 is 1660 nM. Same read-out and setting: the same measure for `COc1cc2nc(C)nc(N[C@H](C)c3cc(N)cc(C(F)(F)C(C)(C)O)c3)c2cc1OCC1(CN(C)C(=O)CCCCCCNc2cccc3c2C(=O)N(C2CCC(=O)NC2=O)C3=O)CC1` (stereo not given in full): 220 nM.
